Measurements taken from US20230265151A1, “GIP/GLP1 CO-AGONIST COMPOUNDS” (priority 2020, published 2023).

Experiments:
Format in all cases: cell-based
hGIPR = target: T1, hGIPR (Homo sapiens, UniProt P48546); assay: Functional cAMP formation (HTRF) in HEK-293 clonal cells expressing hGIPR, 0.1% bovine casein, without or with 1.0% human serum albumin; settings: for EC50: hGIPR EC50, nM (SEM, n), cAMP, incubated at 37° C., 0.1% bovine casein (no human serum albumin), geometric mean
T1 construct: expressed in transfected cells
T1 sequence (P48546 22-466): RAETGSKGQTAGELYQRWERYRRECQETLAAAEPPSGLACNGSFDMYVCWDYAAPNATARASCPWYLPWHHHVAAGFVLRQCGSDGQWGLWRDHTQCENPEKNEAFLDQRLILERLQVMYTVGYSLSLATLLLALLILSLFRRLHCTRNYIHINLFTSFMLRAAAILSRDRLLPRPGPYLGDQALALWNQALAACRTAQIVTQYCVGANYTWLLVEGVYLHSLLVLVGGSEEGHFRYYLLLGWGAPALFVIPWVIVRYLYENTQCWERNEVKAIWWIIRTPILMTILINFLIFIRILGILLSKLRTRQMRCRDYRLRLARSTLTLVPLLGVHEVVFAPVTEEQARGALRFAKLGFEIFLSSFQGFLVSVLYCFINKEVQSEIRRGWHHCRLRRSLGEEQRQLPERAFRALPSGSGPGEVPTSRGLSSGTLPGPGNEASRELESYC
In short: (§1)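 Cells were stimulated with peptide for 30 min at 37° C, then intracellular cAMP was measured by competitive HTRF (665/620 nm ratio) and converted to nM using a cAMP standard curve. Relative EC50 and Emax came from four-parameter logistic fits of percent maximal response against peptide concentration.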

hGCGR = target: T2, hGCGR (Homo sapiens, UniProt P47871); assay: Functional cAMP formation (HTRF) in HEK-293 clonal cells expressing hGCGR, 0.1% bovine casein, without or with 1.0% human serum albumin; settings: hGCGR EC50, nM (SEM, n), cAMP, incubated at 37° C., 0.1% bovine casein (no human serum albumin); geometric mean
T2 construct: expressed in transfected cells
In short: as §1

hGLP-1R = hGLP-1R (Homo sapiens, UniProt P43220); assay: Functional cAMP formation (HTRF) in HEK-293 clonal cells expressing hGLP-1R, 0.1% bovine casein, without or with 1.0% human serum albumin; design: expressed in transfected cells; settings: for Emax: HEK293, read-out: hGLP-1R Emax, % ± SEM, percent of maximal response to GLP-1(7-36)NH2, 37° C., 0.1% bovine casein, arithmetic mean
In short: as §1

Chain of hGLP-1R (P43220 24-463): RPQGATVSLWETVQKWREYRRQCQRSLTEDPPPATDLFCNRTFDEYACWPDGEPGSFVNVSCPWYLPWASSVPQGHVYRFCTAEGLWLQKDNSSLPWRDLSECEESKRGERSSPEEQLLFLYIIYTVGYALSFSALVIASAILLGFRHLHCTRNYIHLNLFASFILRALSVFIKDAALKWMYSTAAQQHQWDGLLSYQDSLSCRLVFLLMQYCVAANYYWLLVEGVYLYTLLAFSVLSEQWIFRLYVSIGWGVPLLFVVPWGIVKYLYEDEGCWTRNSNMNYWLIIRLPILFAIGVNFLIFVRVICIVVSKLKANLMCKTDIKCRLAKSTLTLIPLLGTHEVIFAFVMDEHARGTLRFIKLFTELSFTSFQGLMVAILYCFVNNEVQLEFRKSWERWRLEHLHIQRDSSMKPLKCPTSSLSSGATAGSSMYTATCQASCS
T2 sequence (P47871 26-477): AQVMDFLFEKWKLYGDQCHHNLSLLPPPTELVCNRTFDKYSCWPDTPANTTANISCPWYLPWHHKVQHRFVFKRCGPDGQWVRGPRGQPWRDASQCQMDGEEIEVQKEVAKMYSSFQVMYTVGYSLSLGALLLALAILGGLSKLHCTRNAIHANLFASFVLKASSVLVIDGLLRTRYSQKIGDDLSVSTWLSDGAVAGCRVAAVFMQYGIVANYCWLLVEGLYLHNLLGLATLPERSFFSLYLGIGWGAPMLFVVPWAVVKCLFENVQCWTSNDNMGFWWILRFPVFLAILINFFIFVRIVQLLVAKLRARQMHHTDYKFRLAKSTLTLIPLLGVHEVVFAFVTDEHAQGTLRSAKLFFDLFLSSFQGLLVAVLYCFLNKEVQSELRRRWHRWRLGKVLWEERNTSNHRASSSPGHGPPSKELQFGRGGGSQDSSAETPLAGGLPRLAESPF

| Compound | EC50 (hGIPR) | EC50 (hGCGR) | Emax (hGLP-1R) | EC50 (hGLP-1R; hGLP-1R EC50, nM (SEM, n), cAMP, incubated at 37° C., 0.1% bovine casein (no human serum albumin), geometric mean) | Emax (hGIPR; HEK293, read-out: hGIPR Emax, % ± SEM, percent of maximal response to GIP(1-42)NH2, 37° C., 0.1% bovine casein, arithmetic mean) |
| --- | --- | --- | --- | --- | --- |
| CC[C@H](C)[C@H](NC(=O)[C@H](CC(C)C)NC(=O)[C@](C)(Cc1ccc(O)cc1)NC(=O)[C@H](CCCCNC(=O)COCCOCCNC(=O)COCCOCCNC(=O)CC[C@H](NC(=O)CCCCCCCCCCCCC(=O)O)C(=O)O)NC(=O)[C@@H](NC(=O)[C@](C)(Cc1ccccc1)NC(=O)[C@H](CCC(=O)O)NC(=O)C(C)(C)NC(=O)[C@H](CCC(N)=O)NC(=O)[C@H](C)NC(=O)[C@H](CCCCNC(=O)COCCOCCNC(=O)COCCOCCNC(=O)CC[C@H](NC(=O)CCCCCCCCCCCCC(=O)O)C(=O)O)NC(=O)[C@H](CCCN)NC(=O)[C@H](CC(=O)O)NC(=O)[C@H](CC(C)C)NC(=O)[C@](C)(CC(C)C)NC(=O)[C@@H](NC(=O)C(C)(C)NC(=O)[C@@H](NC(=O)[C@H](CC(=O)O)NC(=O)[C@H](CO)NC(=O)[C@@H](NC(=O)[C@](C)(Cc1ccccc1F)NC(=O)[C@@H](NC(=O)CNC(=O)[C@H](CCC(=O)O)NC(=O)C(C)(C)NC(=O)[C@@H](N)Cc1ccc(O)cc1)[C@@H](C)O)[C@@H](C)O)C(C)C)[C@@H](C)CC)[C@@H](C)CC)C(=O)N[C@@H](CCC(=O)O)C(=O)NCC(=O)NCC(=O)N1CCC[C@H]1C(=O)N[C@@H](CO)C(=O)N[C@@H](CO)C(=O)NCC(=O)N[C@@H](C)C(=O)N1CCC[C@H]1C(=O)N1CCC[C@H]1C(=O)N1CCC[C@H]1C(=O)N[C@@H](CO)C(N)=O [Example 119] | 0.0863 nM | > 9950 nM | 99.4% | 0.351 nM |  |
| CC[C@H](C)[C@H](NC(=O)[C@H](CC(C)C)NC(=O)[C@](C)(Cc1ccc(O)cc1)NC(=O)[C@H](CCC(=O)O)NC(=O)[C@@H](NC(=O)[C@H](Cc1ccccc1)NC(=O)[C@H](CCC(=O)O)NC(=O)C(C)(C)NC(=O)[C@H](CCC(N)=O)NC(=O)[C@H](C)NC(=O)[C@H](CCCCNC(=O)COCCOCCNC(=O)COCCOCCNC(=O)CC[C@H](NC(=O)CCCCCCCCCCCCC(=O)O)C(=O)O)NC(=O)[C@H](CCCN)NC(=O)[C@H](CC(=O)O)NC(=O)[C@H](CC(C)C)NC(=O)[C@](C)(CC(C)C)NC(=O)[C@@H](NC(=O)[C@H](CO)NC(=O)[C@H](Cc1ccncc1)NC(=O)[C@H](CC(=O)O)NC(=O)[C@H](CO)NC(=O)[C@@H](NC(=O)[C@](C)(Cc1ccccc1F)NC(=O)[C@@H](NC(=O)CNC(=O)[C@H](CCC(=O)O)NC(=O)C(C)(C)NC(=O)[C@@H](N)Cc1ccc(O)cc1)[C@@H](C)O)[C@@H](C)O)[C@@H](C)CC)[C@@H](C)CC)C(=O)N[C@@H](CCC(=O)O)C(=O)NCC(=O)NCC(=O)N[C@@H](CCCCNC(=O)COCCOCCNC(=O)COCCOCCNC(=O)CC[C@H](NC(=O)CCCCCCCCCCCCC(=O)O)C(=O)O)C(=O)N[C@@H](CO)C(=O)N[C@@H](CO)C(=O)NCC(=O)N[C@@H](C)C(=O)N1CCC[C@H]1C(=O)N1CCC[C@H]1C(=O)N1CCC[C@H]1C(=O)N[C@@H](CO)C(N)=O [Example 158] | 0.0204 nM | > 9950 nM | 87.2% |  | 93.4% |
